Test results taken from patent publication US20170127675A1, “COMPOSITIONS AND METHODS FOR CONTROLLING INSECT POPULATIONS” (OLFACTOR LABORATORIES, INC., priority 2014, published 2017).
Structures can show the parent of a compound that is named as a salt.

System: mosquitoes
Assay: Attractive toxic sugar assay
Assay type: in vivo
Conditions: after three days, dead / total mosquitoes
Description: Experiments were carried out to examine the lethality of compounds of the present invention using an attractive toxic sugar assay. These experiments were carried out in 6 groups according to Table 3. […] The experimental room was conditioned with 75% humidity or higher. Experimental cages were prepared by adding paper towels to the cage bottoms. Cages of mosquitoes were collected (about 25 males and about 25 females per cage), one cage for each sugar bait being tested with an extra cage to use as a sucrose-only control. […] Feeding cups were prepared with 10 ml of experimental sugar bait to a cup. In some experiments, blue food coloring was added to verify sugar consumption in the frass. Bait cups were mixed by gentle swirling and wicks were added through the top. Control bait cups received about 10 ml of prepared 10% sucrose solution (except where otherwise indicated). Heat, humidity as well as humidifier water content were checked each day. Cages were examined daily for dead mosquitoes. The number of dead mosquitoes per gender was recorded each day. Frass content was examined daily and compared with that of sucrose control. After three days, final observations were made and live mosquitoes were removed from each experimental cage and placed into cups for examination under the dissecting scope to determine whether or not female mosquitoes had fed. Once feeding females had been determined for populations from each cage, cups were frozen and discarded. Dead mosquitoes in each cage were counted and the sex of each determined. The relative frass content per cage was compared to that of the sucrose control cage. […] Percent (%) lethality was calculated for each treatment group by dividing the total (male and female) number of dead mosquitoes by the total number of mosquitoes for each.

[1] = sugar conc. 0.10%, about 25 male and 25 female mosquitoes per cage

Compound | % Lethality [1] [%] | % Lethality (sugar conc. 0.50%) [%]
O=C(CO)[C@@H](O[C@H]1O[C@H](CO)[C@@H](O)[C@H](O)[C@H]1O)[C@H](O)[C@H](O)CO [D-(+)-turanose] | 66 | 29
O.O.O.O.O.OC[C@H]1O[C@H](OC[C@H]2O[C@H](O[C@]3(CO)O[C@H](CO)[C@@H](O)[C@@H]3O)[C@H](O)[C@@H](O)[C@@H]2O)[C@H](O)[C@@H](O)[C@H]1O [D-(+)-raffinose pentahydrate] | 38.8 | 
n-acetyl allolactosamine | 44 | 
CC1(C)[C@@H](O[C@H]2O[C@H](C(=O)O)[C@@H](O)[C@H](O)[C@H]2O[C@@H]2O[C@H](C(=O)O)[C@@H](O)[C@H](O)[C@H]2O)CC[C@]2(C)[C@H]3C(=O)C=C4[C@@H]5C[C@@](C)(C(=O)O)CC[C@]5(C)CC[C@@]4(C)[C@]3(C)CC[C@@H]12 [glycyrrhizic acid ammonium salt] | 68.3 | 
CO[C@@H]1O[C@H](CO)[C@H](O)[C@H](O)[C@H]1O [methyl-beta-D-galactopyranoside] | 65.9 | 43
sucrose octasulfate aluminum complex | 39.6 | 
OC[C@H]1O[C@@H](O[C@H]2O[C@H](CO)[C@@H](O)[C@H](O)[C@H]2O)[C@H](O)[C@@H](O)[C@@H]1O [alpha,beta-trehalose] | 56.2 | 
OC[C@H]1O[C@H](OCC2O[C@@H](O)[C@H](O)[C@@H](O)[C@@H]2O)[C@H](O)[C@@H](O)[C@H]1O (stereo partly drawn) [melibiose] | 64.4 | 
C[C@@H]1O[C@@H](OC[C@H]2O[C@@H](Oc3c(-c4ccc(O)c(O)c4)oc4cc(O)cc(O)c4c3=O)[C@H](O)[C@@H](O)[C@@H]2O)[C@H](O)[C@H](O)[C@H]1O [rutin hydrate] | 58 | 45
